Among the data in ChEMBL document CHEMBL5506031, “Design, Synthesis, Bioactive Evaluation, and Molecular Dynamics Simulation of Novel 4H-Pyrano[3,2-c]pyridine Analogues as Potential Sterol 14α-Demethylase (CYP51) Inhibitors” (J Med Chem, 2024) are inhibition, EC50 and IC50 values, retold here.

One assay has as its system Penicillium digitatum. The assay is described as follows: Fungicidal activity against Penicillium digitatum assessed as fungal inhibitory rate at 16 ug/ml relative to control. In kind it is functional.
In assay [1] the test system is Botrytis cinerea. The assay is described as follows: Fungicidal activity against Botrytis cinerea assessed as fungal inhibitory rate at 16 ug/ml relative to control. In kind it is functional.
The test system of another assay is Fusarium oxysporum. The assay is described as follows: Fungicidal activity against Fusarium oxysporum assessed as fungal inhibitory rate at 16 ug/ml relative to control. In kind it is functional.
The test system of a further assay is Colletotrichum lagenaria. The assay is described as follows: Fungicidal activity against Colletotrichum lagenarium assessed as fungal inhibitory rate at 16 ug/ml relative to control. In kind it is functional.
Assay [2] deals with Botrytis cinerea. The assay is described as follows: Fungicidal activity against Botrytis cinerea assessed as fungal growth reduction. In kind it is functional, organism-based.
The nature of assay [3]: Inhibition of Botrytis cinerea CYP51 by ELISA.
The next assay concerns Sclerotinia sclerotiorum. The experiment in a line: Fungicidal activity against Sclerotinia sclerotiorum assessed as fungal inhibitory rate at 16 ug/ml relative to control. In kind it is functional.

In brackets after ≈: the same amount, converted by molar mass.

One may read the inhibition as the relative decrease from the control value, in per cent. The term EC50 denotes the midpoint of the concentration-response curve. Usually IC50 stands for the midpoint of a concentration-inhibition curve.

Regarding `Cc1ccc(/C=C2\CN(C(=O)c3ccco3)CC3=C2OC(N)=C(C#N)C3c2ccc(C)s2)s1` (stereo not given), the inhibition at 16 µg/mL stood at 28.5% with Penicillium digitatum, 70.1% in the assay on Botrytis cinerea [1], 27.6% in the assay on Fusarium oxysporum and 31.1% in the assay on Colletotrichum lagenaria.

With `COC(=O)C1=C(N)OC2=C(CN(C(=O)c3cccs3)C/C2=C\c2ccc(Br)s2)C1c1ccc(Br)s1` (stereo not given), the inhibition at 16 µg/mL was found to be 61% in the assay on Penicillium digitatum; 100% with Botrytis cinerea [1]; 62.9% with Fusarium oxysporum; 66.2% with Colletotrichum lagenaria; 68.5% in the assay on Sclerotinia sclerotiorum. The EC50 in the assay on Botrytis cinerea [2] came to 1.04 mg/L (≈ 1.59 µM). The molecule further gave an IC50 in assay [3] of 1.288 mg/L (≈ 1.97 µM).

Turning to `COC(=O)C1=C(N)OC2=C(CN(C(=O)c3ccco3)C/C2=C\c2cccs2)C1c1cccs1` (stereo not given), the inhibition at 16 µg/mL in the assay with Penicillium digitatum came to 36.1%; in the assay on Botrytis cinerea [1] it was 82.2%; in the assay with Fusarium oxysporum, 34%; in the assay on Colletotrichum lagenaria, 38.2%; in the assay on Sclerotinia sclerotiorum, 43.4%.

`COC(=O)C1=C(N)OC2=C(CN(C(=O)c3cccs3)C/C2=C\c2ccc(Cl)s2)C1c1ccc(Cl)s1` (stereo not given): the inhibition at 16 µg/mL in the assay with Penicillium digitatum is 67.5%; in the assay on Botrytis cinerea [1] it was 100%; in the assay on Fusarium oxysporum it was 72.8%; in the assay with Colletotrichum lagenaria, 72.2%; with Sclerotinia sclerotiorum it was 74.1%. The EC50 with Botrytis cinerea [2] stood at 0.824 mg/L (≈ 1.46 µM). The IC50 in assay [3] is 0.907 mg/L (≈ 1.6 µM).

In the case of `COC(=O)C1=C(N)OC2=C(CN(C(=O)c3cccs3)C/C2=C\c2ccc(Br)o2)C1c1ccc(Br)o1` (stereo not given), the inhibition at 16 µg/mL was determined as 73.1% in the assay with Penicillium digitatum; 100% in the assay with Botrytis cinerea [1]; 80.9% in the assay with Fusarium oxysporum; 78.3% with Colletotrichum lagenaria; 80% in the assay on Sclerotinia sclerotiorum. In addition, the concentration giving a half-maximal response (EC50) in the assay with Botrytis cinerea [2] worked out at 0.61 mg/L (≈ 0.98 µM). In addition, the IC50 in assay [3] came out at 0.748 mg/L (≈ 1.2 µM).

In the case of `CN1CC2=C(OC(N)=C(C#N)C2c2cccs2)/C(=C/c2cccs2)C1` (stereo not given), the inhibition at 16 µg/mL with Botrytis cinerea [1] was determined as 50.2%; in the assay on Fusarium oxysporum it was 38.9%; in the assay with Colletotrichum lagenaria, 70.9%; in the assay with Sclerotinia sclerotiorum it was 68.8%.

In the case of `N#CC1=C(N)OC2=C(CN(C(=O)c3ccco3)C/C2=C\c2cccs2)C1c1cccs1` (stereo not given), the inhibition at 16 µg/mL amounted to 62.7% with Botrytis cinerea [1], 23.8% in the assay on Fusarium oxysporum and 27.9% in the assay with Sclerotinia sclerotiorum.

Take `N#CC1=C(N)OC2=C(CN(C(=O)c3ccco3)C/C2=C\c2ccco2)C1c1ccco1` (stereo not given): the figures for the inhibition at 16 µg/mL with Penicillium digitatum, with Botrytis cinerea [1] and in the assay on Sclerotinia sclerotiorum were 58.2%, 100% and 65.4%, respectively. Moreover, in the assay with Botrytis cinerea [2], the EC50 is 1.17 mg/L (≈ 2.82 µM). Further, the IC50 in assay [3] came out at 1.425 mg/L (≈ 3.43 µM).

As for `N#CC1=C(N)OC2=C(CN(C(=O)c3ccco3)C/C2=C\c2ccc(Br)s2)C1c1ccc(Br)s1` (stereo not given), the inhibition at 16 µg/mL came out at 25.7% in the assay with Penicillium digitatum; 66.5% with Botrytis cinerea [1]; 25% in the assay on Fusarium oxysporum; 28.1% in the assay with Colletotrichum lagenaria; 31.6% with Sclerotinia sclerotiorum.

Consider `N#CC1=C(N)OC2=C(CN(C(=O)c3cccs3)C/C2=C\c2cccs2)C1c1cccs1` (stereo not given), for which the inhibition at 16 µg/mL in the assay on Penicillium digitatum amounted to 30.2%; with Botrytis cinerea [1], 73.6%; in the assay with Colletotrichum lagenaria it was 33.7%; in the assay with Sclerotinia sclerotiorum, 37.6%.

Consider `Cc1ccc(/C=C2\CN(C(=O)c3cccs3)CC3=C2OC(N)=C(C#N)C3c2ccc(C)o2)o1` (stereo not given), for which the inhibition at 16 µg/mL with Penicillium digitatum came out at 21.9%; in the assay with Botrytis cinerea [1] it was 56.9%; with Fusarium oxysporum, 22.9%; in the assay with Colletotrichum lagenaria, 23.4%; in the assay with Sclerotinia sclerotiorum, 24.7%.

`COC(=O)C1=C(N)OC2=C(CN(C)C/C2=C\c2cccs2)C1c1cccs1` (stereo not given): the inhibition at 16 µg/mL in the assay with Penicillium digitatum worked out at 34.2%; in the assay on Botrytis cinerea [1] it was 38.8%; in the assay on Fusarium oxysporum, 25.8%; with Colletotrichum lagenaria, 51.8%; with Sclerotinia sclerotiorum, 57.2%.

As to `CN1CC2=C(OC(N)=C(C#N)C2c2ccc(Br)s2)/C(=C/c2ccc(Br)s2)C1` (stereo not given), the inhibition at 16 µg/mL in the assay with Penicillium digitatum was determined as 42.5%; in the assay with Botrytis cinerea [1] it was 44.8%; in the assay with Fusarium oxysporum it was 31.2%; in the assay with Colletotrichum lagenaria, 60.5%; with Sclerotinia sclerotiorum it was 60.7%.

For `N#CC1=C(N)OC2=C(CN(C(=O)c3ccco3)C/C2=C\c2ccc(Cl)s2)C1c1ccc(Cl)s1` (stereo not given), the inhibition at 16 µg/mL in the assay with Penicillium digitatum stood at 47.1%; in the assay with Botrytis cinerea [1], 94%; in the assay with Fusarium oxysporum, 46.6%; with Colletotrichum lagenaria, 52.5%; with Sclerotinia sclerotiorum it was 53.5%. Also, in the assay on Botrytis cinerea [2], the EC50 worked out at 2.07 mg/L (≈ 4.01 µM). The molecule also yielded an IC50 in assay [3] of 2.333 mg/L (≈ 4.52 µM).

Turning to `N#CC1=C(N)OC2=C(CN(C(=O)c3cccs3)C/C2=C\c2ccc(Br)o2)C1c1ccc(Br)o1` (stereo not given), the inhibition at 16 µg/mL with Penicillium digitatum is 54.5%; with Botrytis cinerea [1] it was 100%; with Fusarium oxysporum, 55.2%; with Sclerotinia sclerotiorum, 62.7%. In the assay on Botrytis cinerea [2], the EC50 was found to be 1.3 mg/L (≈ 2.21 µM). The molecule further yielded an IC50 in assay [3] of 1.522 mg/L (≈ 2.58 µM).

Take `Cc1ccc(/C=C2\CN(C(=O)c3ccco3)CC3=C2OC(N)=C(C#N)C3c2ccc(C)o2)o1` (stereo not given): the inhibition at 16 µg/mL came out at 39% with Penicillium digitatum, 85.4% with Botrytis cinerea [1], 38.1% in the assay on Fusarium oxysporum and 46.2% with Sclerotinia sclerotiorum.

Consider `CN1CC2=C(OC(N)=C(C#N)C2c2ccc(Br)o2)/C(=C/c2ccc(Br)o2)C1` (stereo not given), for which the inhibition at 16 µg/mL is 78.2% in the assay with Penicillium digitatum, 72.8% with Botrytis cinerea [1], 52.2% in the assay with Fusarium oxysporum and 87.2% in the assay with Sclerotinia sclerotiorum.

With `CN1CC2=C(OC(N)=C(C#N)C2c2ccc(Cl)s2)/C(=C/c2ccc(Cl)s2)C1` (stereo not given), the inhibition at 16 µg/mL was 46.8% in the assay on Penicillium digitatum; 48.5% in the assay on Botrytis cinerea [1]; 34.5% with Fusarium oxysporum; 66% in the assay with Colletotrichum lagenaria; 64.9% in the assay on Sclerotinia sclerotiorum.

Take `N#CC1=C(N)OC2=C(CN(C(=O)c3cccs3)C/C2=C\c2ccc(Cl)s2)C1c1ccc(Cl)s1` (stereo not given): the inhibition at 16 µg/mL came out at 44.8% with Penicillium digitatum; 92.9% in the assay on Botrytis cinerea [1]; 43.5% in the assay on Fusarium oxysporum; 48.7% with Colletotrichum lagenaria; 50.8% in the assay on Sclerotinia sclerotiorum. The EC50 in the assay on Botrytis cinerea [2] was determined as 2.25 mg/L (≈ 4.22 µM). In assay [3], the IC50 is 2.625 mg/L (≈ 4.93 µM).

Consider `COC(=O)C1=C(N)OC2=C(CN(C)C/C2=C\c2ccc(Br)s2)C1c1ccc(Br)s1` (stereo not given), for which the inhibition at 16 µg/mL was 22.5% in the assay on Penicillium digitatum; 31.6% in the assay with Botrytis cinerea [1]; 20.3% in the assay on Fusarium oxysporum; 33.6% in the assay with Colletotrichum lagenaria; 38.3% in the assay on Sclerotinia sclerotiorum.

For the molecule `COC(=O)C1=C(N)OC2=C(CN(C(=O)c3ccco3)C/C2=C\c2ccc(Cl)s2)C1c1ccc(Cl)s1` (stereo not given), the inhibition at 16 µg/mL amounted to 70% with Penicillium digitatum, 100% in the assay with Botrytis cinerea [1], 77.7% with Fusarium oxysporum and 75.7% with Colletotrichum lagenaria. Moreover, in the assay with Botrytis cinerea [2], the EC50 was found to be 0.761 mg/L (≈ 1.39 µM). The same molecule returned an IC50 in assay [3] of 0.831 mg/L (≈ 1.51 µM).

In the case of `COC(=O)C1=C(N)OC2=C(CN(C(=O)c3ccco3)C/C2=C\c2ccc(Br)s2)C1c1ccc(Br)s1` (stereo not given), the inhibition at 16 µg/mL is 64.3% with Penicillium digitatum; 100% in the assay on Botrytis cinerea [1]; 67.5% in the assay on Fusarium oxysporum; 69.3% in the assay on Colletotrichum lagenaria; 71.6% with Sclerotinia sclerotiorum. In the assay on Botrytis cinerea [2], the EC50 turned out to be 0.976 mg/L (≈ 1.53 µM). For the same molecule, the IC50 in assay [3] worked out at 1.138 mg/L (≈ 1.78 µM).

Take `Cc1ccc(/C=C2\CN(C)CC3=C2OC(N)=C(C#N)C3c2ccc(C)s2)s1` (stereo not given): the inhibition at 16 µg/mL in the assay with Penicillium digitatum is 38.9%; with Fusarium oxysporum it was 27.6%; in the assay with Colletotrichum lagenaria, 57.6%; with Sclerotinia sclerotiorum, 58.6%.

Take `COC(=O)C1=C(N)OC2=C(CN(C(=O)c3cccs3)C/C2=C\c2cccs2)C1c1cccs1` (stereo not given): the inhibition at 16 µg/mL is 33.8% in the assay on Penicillium digitatum; 78.4% with Botrytis cinerea [1]; 31.5% in the assay on Fusarium oxysporum; 36.4% in the assay with Colletotrichum lagenaria; 40.5% in the assay with Sclerotinia sclerotiorum.

As to `COC(=O)C1=C(N)OC2=C(CN(C)C/C2=C\c2ccc(Cl)s2)C1c1ccc(Cl)s1` (stereo not given), the inhibition at 16 µg/mL is 30% with Penicillium digitatum; 35.2% in the assay with Botrytis cinerea [1]; 23.6% in the assay with Fusarium oxysporum; 42.9% in the assay with Colletotrichum lagenaria; 49.6% with Sclerotinia sclerotiorum.

Turning to `COC(=O)C1=C(N)OC2=C(CN(C)C/C2=C\c2ccco2)C1c1ccco1` (stereo not given), the inhibition at 16 µg/mL turned out to be 60.9% in the assay on Penicillium digitatum; 56.7% in the assay on Botrytis cinerea [1]; 41.7% in the assay on Fusarium oxysporum; 76.5% with Colletotrichum lagenaria; 73.7% with Sclerotinia sclerotiorum.

For the molecule `Cc1ccc(/C=C2\CN(C(=O)c3cccs3)CC3=C2OC(N)=C(C#N)C3c2ccc(C)s2)s1` (stereo not given), the inhibition at 16 µg/mL with Penicillium digitatum was found to be 20.1%; in the assay on Botrytis cinerea [1] it was 51.8%; in the assay with Fusarium oxysporum it was 20.3%; with Colletotrichum lagenaria it was 20.5%; with Sclerotinia sclerotiorum, 21.1%.

Turning to `Cc1ccc(/C=C2\CN(C)CC3=C2OC(N)=C(C#N)C3c2ccc(C)o2)o1` (stereo not given), the inhibition at 16 µg/mL with Penicillium digitatum is 74%; in the assay on Botrytis cinerea [1], 65.6%; with Fusarium oxysporum, 48.5%; in the assay with Colletotrichum lagenaria, 84.8%; with Sclerotinia sclerotiorum, 81.6%.

`COC(=O)C1=C(N)OC2=C(CN(C)C/C2=C\c2ccc(Br)o2)C1c1ccc(Br)o1` (stereo not given): the inhibition at 16 µg/mL in the assay with Botrytis cinerea [1] was 60%; in the assay on Fusarium oxysporum it was 45.6%; in the assay on Sclerotinia sclerotiorum, 77.4%.

For `N#CC1=C(N)OC2=C(CN(C(=O)c3cccs3)C/C2=C\c2ccc(Br)s2)C1c1ccc(Br)s1` (stereo not given), the inhibition at 16 µg/mL in the assay with Penicillium digitatum came out at 42.2%; in the assay with Fusarium oxysporum, 41%; with Colletotrichum lagenaria, 44.3%; with Sclerotinia sclerotiorum it was 48.9%. Besides, the EC50 with Botrytis cinerea [2] was 2.71 mg/L (≈ 4.36 µM). In assay [3], this molecule yielded an IC50 of 3.031 mg/L (≈ 4.88 µM).
